Where a name gives a salt, the structure may show the parent alone.
Experiments:
[1] = molecular target: RON (human) (Homo sapiens, UniProt Q04912); assay: RON kinase AlphaScreen assay (Km of ATP); format: biochemical; details: ATP at Km; at least duplicate experiments
Description: (§1) Person skilled in the art will appreciate that a variety of assay formats may be used to determine the activity of the compounds of this invention. For example, AlphaScreen (Amplified Luminescent Proximity Homogeneous Assay) technology was used with the kinases described below. Assay ATP concentrations for individual kinases are included in the text.
RON (human)—Km of ATP: RON assay is performed in a 384 well assay containing 200 ng/μL biotinylated poly(Glu,Tyr), 0.334 mM vanadate, desired concentration of ATP optimized for the enzyme in assay buffer (50 mM HEPES (pH=7.4), 12.5 mM MgCl2 and 1% glycerol). Desired compound is added in a final concentration of 1% DMSO with control being vehicle of DMSO alone. RON is diluted to the optimized (on a lot-by-lot basis) concentration in an enzyme diluent buffer (50 mM HEPES pH=7.4, 12.5 mM MgCl2 and 1% glycerol, 0.03% Brij35, 0.3 mM EGTA, lmM DTT, and 0.003% BSA). Enzyme is added to initiate the reaction and incubated for 30 min at RT. In subdued light, appropriate amount of PT66 donor and acceptor beads (diluted 1:260 from manufacturer's provision in a 25 mM Tris HCl (pH=7.5), 200 mM NaCl, 100 mM EDTA, 0.3% BSA buffer) are added to the wells. The plates, incubated for 1 h, are read on an AlphaQuest plate reader.

[2] = molecular target: MET (human) (Homo sapiens, UniProt P08581); assay: MET kinase AlphaScreen assay (Km of ATP); format: biochemical; details: ATP at Km; at least duplicate experiments
Description: as §1
MET (human)—Km of ATP: MET assay is performed in a 384 well assay containing 200 ng/μL biotinylated poly(Glu,Tyr), 0.334 mM vanadate, desired concentration of ATP optimized for the enzyme in assay buffer (50 mM HEPES (pH=7.4), 5 mM MgCl2, 5 mM MnCl2, and 1% glycerol). Desired compound is added in a final concentration of 1% DMSO with control being vehicle of DMSO alone. MET is diluted to the optimized concentration (optimized on a lot-by-lot basis) in an enzyme diluent buffer (50 mM Tris pH=7.4, 1% glycerol, 0.03% Brij35, 0.24 mM EGTA, 1 mM DTT, and 0.003% BSA). Enzyme is added to initiate the reaction and incubated for 60 min at RT. In subdued light, appropriate amount of PT66 donor and acceptor beads (diluted 1:260 from manufacturer's provision in a 25 mM Tris HCl (pH=7.5), 400 mM NaCl, 100 mM EDTA, 0.3% BSA buffer) are added to the wells. The plates, incubated for 1 h, are read on an AlphaQuest plate reader

Sequence of RON (human) (Q04912 25-1400): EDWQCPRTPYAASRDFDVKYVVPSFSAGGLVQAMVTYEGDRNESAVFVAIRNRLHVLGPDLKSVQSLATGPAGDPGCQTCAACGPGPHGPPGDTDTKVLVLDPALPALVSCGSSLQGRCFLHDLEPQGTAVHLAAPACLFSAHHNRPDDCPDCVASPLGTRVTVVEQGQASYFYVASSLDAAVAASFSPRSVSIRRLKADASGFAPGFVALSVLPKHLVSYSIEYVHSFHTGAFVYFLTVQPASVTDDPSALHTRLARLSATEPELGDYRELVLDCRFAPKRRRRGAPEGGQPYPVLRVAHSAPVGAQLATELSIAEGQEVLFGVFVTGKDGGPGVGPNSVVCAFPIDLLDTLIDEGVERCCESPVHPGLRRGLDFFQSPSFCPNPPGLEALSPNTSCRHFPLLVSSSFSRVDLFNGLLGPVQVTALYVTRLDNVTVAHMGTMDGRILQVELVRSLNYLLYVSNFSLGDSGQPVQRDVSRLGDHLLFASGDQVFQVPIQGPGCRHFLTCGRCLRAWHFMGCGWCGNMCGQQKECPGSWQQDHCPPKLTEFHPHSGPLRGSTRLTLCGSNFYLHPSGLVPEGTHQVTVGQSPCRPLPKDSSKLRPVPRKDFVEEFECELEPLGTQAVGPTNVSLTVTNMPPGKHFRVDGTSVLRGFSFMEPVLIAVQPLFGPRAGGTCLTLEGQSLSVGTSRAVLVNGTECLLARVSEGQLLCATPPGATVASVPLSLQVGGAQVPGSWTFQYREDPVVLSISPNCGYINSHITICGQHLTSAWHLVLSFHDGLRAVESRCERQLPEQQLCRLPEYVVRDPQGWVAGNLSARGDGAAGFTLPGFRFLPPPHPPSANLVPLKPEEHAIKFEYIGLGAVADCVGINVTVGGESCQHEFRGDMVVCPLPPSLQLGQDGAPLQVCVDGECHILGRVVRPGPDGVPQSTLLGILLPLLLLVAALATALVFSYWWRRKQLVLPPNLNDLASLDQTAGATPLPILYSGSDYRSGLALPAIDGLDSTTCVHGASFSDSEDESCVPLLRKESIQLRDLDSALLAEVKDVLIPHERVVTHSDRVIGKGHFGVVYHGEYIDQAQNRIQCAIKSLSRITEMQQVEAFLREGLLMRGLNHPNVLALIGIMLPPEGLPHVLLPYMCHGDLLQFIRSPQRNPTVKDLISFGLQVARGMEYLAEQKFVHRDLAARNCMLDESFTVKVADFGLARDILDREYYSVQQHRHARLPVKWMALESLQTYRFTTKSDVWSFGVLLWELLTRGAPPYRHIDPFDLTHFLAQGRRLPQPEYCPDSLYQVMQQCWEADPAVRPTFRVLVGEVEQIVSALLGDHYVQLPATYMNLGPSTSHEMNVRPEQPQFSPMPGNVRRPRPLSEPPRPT
Sequence of MET (human) (P08581 25-1390): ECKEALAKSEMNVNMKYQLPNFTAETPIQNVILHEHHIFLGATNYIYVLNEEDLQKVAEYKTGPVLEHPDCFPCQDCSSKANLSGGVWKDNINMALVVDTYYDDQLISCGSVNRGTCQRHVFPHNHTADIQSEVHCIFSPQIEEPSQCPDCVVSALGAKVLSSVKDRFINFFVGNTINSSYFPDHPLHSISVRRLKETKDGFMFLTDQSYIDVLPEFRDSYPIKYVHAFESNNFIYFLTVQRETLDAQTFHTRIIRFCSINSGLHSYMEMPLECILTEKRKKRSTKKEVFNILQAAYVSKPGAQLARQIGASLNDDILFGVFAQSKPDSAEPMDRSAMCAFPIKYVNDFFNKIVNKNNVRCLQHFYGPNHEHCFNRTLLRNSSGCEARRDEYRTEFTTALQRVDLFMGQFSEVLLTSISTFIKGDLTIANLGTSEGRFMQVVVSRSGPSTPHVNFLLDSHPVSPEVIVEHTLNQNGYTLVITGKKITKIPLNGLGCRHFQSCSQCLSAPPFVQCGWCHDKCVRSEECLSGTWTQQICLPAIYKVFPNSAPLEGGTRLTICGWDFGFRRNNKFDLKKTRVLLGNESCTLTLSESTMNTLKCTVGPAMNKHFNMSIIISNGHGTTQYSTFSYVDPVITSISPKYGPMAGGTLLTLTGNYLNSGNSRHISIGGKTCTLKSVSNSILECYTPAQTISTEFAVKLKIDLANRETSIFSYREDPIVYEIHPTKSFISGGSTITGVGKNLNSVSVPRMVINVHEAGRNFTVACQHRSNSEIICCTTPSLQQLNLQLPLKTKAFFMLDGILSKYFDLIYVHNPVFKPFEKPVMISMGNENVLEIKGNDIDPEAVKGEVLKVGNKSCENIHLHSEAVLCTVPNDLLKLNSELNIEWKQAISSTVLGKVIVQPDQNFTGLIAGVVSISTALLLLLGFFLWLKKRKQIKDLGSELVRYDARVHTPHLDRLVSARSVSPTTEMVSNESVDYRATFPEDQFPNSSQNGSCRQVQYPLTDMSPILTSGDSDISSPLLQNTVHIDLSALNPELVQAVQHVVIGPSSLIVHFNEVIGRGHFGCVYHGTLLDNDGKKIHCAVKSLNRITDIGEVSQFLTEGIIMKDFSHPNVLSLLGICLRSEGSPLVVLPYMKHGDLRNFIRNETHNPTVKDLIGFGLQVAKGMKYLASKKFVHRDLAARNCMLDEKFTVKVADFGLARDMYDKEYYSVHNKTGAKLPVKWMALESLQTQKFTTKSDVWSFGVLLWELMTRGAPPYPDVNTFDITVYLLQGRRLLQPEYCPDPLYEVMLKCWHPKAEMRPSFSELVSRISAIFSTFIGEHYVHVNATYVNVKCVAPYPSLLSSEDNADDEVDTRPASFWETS

IC50 [1]	IC50 [2]	SMILES
100 to 1000 nM	100 to 1000 nM	Nc1ncc(-c2cnn(C3CCNCC3)c2)cc1-c1cc2c(O)cccc2cn1 [Example 27, 3-[2-Amino-5-(1-piperidin-4-yl-1H-pyrazol-4-yl)-pyridin-3-yl]-isoquinolin-5-ol tri-hydrochloride salt]
100 to 1000 nM	100 to 1000 nM	Nc1ncc(-c2cnn(C3CCNCC3)c2)cc1-c1cc2ccc(O)cc2cn1 [Example 29, 3-[2-Amino-5-(1-piperidin-4-yl-1H-pyrazol-4-yl)-pyridin-3-yl]-isoquinolin-7-ol]
1000 to 20000 nM	100 to 1000 nM	COc1nc(-c2cc(-c3cnn(C4CCNCC4)c3)cnc2N)cc2ccccc12 [Example 30, 3-(1-Methoxyisoquinolin-3-yl)-5-(1-piperidin-4-yl-1H-pyrazol-4-yl)-pyridin-2-ylamine trihydrochloride salt]
100 to 1000 nM	100 to 1000 nM	N#Cc1ccc2cc(-c3cc(-c4cnn(C5CCNCC5)c4)cnc3N)ncc2c1 [Example 32, 3-[2-Amino-5-(1-piperidin-4-yl-1H-pyrazol-4-yl)-pyridin-3-yl]-isoquinoline-7-carbonitrile trihydrochloride salt]
1000 to 20000 nM	100 to 1000 nM	Nc1ncc(-c2cnn(C3CCNCC3)c2)cc1-c1cc2ccc(F)cc2cn1 [Example 34, 3-(7-Fluoroisoquinolin-3-yl)-5-(1-piperidin-4-yl-1H-pyrazol-4-yl)-pyridin-2-ylamine]
100 to 1000 nM	100 to 1000 nM	N#Cc1cccc2cc(-c3cc(-c4cnn(C5CCNCC5)c4)cnc3N)ncc12 [Example 36, 3-[2-Amino-5-(1-piperidin-4-yl-1H-pyrazol-4-yl)-pyridin-3-yl]-isoquinoline-8-carbonitrile trihydrochloride salt]
100 to 1000 nM	≤ 100 nM	Nc1ncc(-c2cnn(C3CCNCC3)c2)cc1-c1cc2ccc(F)c(Cl)c2cn1 [Example 38, 3-(8-Chloro-7-fluoroisoquinolin-3-yl)-5-(1-piperidin-4-yl-1H-pyrazol-4-yl)-pyridin-2-ylamine trihydrochloride salt]
100 to 1000 nM	100 to 1000 nM	Nc1ncc(-c2cnn(C3CCNCC3)c2)cc1-c1cc2c(Cl)cccc2cn1 [Example 42, 3-(5-Chloroisoquinolin-3-yl)-5-(1-piperidin-4-yl-1H-pyrazol-4-yl)-pyridin-2-ylamine trihydrochloride]
100 to 1000 nM	100 to 1000 nM	Nc1ncc(-c2cnn(C3CCNCC3)c2)cc1-c1cc2cc(Cl)cc(Cl)c2cn1 [Example 43, 3-(6,8-Dichloroisoquinolin-3-yl)-5-(1-piperidin-4-yl-1H-pyrazol-4-yl)-pyridin-2-ylamine trihydrochloride]
1000 to 20000 nM	100 to 1000 nM	Nc1ncc(-c2cnn(C3CCNCC3)c2)cc1-c1cc2cc(F)cc(F)c2cn1 [Example 46, 3-(6,8-Difluoroisoquinolin-3-yl)-5-(1-piperidin-4-yl-1H-pyrazol-4-yl)-pyridin-2-ylamine trihydrochloride salt]
100 to 1000 nM	100 to 1000 nM	Nc1ncc(-c2cnn(C3CCNCC3)c2)cc1-c1cc2c(-c3ccco3)ccc(F)c2cn1 [Example 48, 3-(8-Fluoro-5-furan-2-ylisoquinolin-3-yl)-5-(1-piperidin-4-yl-1H-pyrazol-4-yl)-pyridin-2-ylamine]
100 to 1000 nM	100 to 1000 nM	Nc1ncc(-c2cnn(C3CCNCC3)c2)cc1-c1cc2c(-c3ccccc3)ccc(F)c2cn1 [Example 50, 3-(8-Fluoro-5-phenylisoquinolin-3-yl)-5-(1-piperidin-4-yl-1H-pyrazol-4-yl)-pyridin-2-ylamine]
≤ 100 nM	≤ 100 nM	Cn1cc(-c2ccc(F)c3cnc(-c4cc(-c5cnn(C6CCNCC6)c5)cnc4N)cc23)cn1 [Example 52, 3-[8-Fluoro-5-(1-methyl-1H-pyrazol-4-yl)-isoquinolin-3-yl]-5-(1-piperidin-4-yl-1H-pyrazol-4-yl)-pyridin-2-ylamine trihydrochloride]
100 to 1000 nM	100 to 1000 nM	Nc1ncc(-c2cnn(C3CCNCC3)c2)cc1-c1cc2c(-c3ccc[nH]3)ccc(F)c2cn1 [Example 53, 3-[8-Fluoro-5-(1H-pyrrol-2-yl)-isoquinolin-3-yl]-5-(1-piperidin-4-yl-1H-pyrazol-4-yl)-pyridin-2-ylamine]

Continued, compound first:

SMILES	IC50 [1]	IC50 [2]
Nc1ncc(-c2cnn(C3CCNCC3)c2)cc1-c1cc2cc(O)ccc2cn1 [Example 28, 3-[2-Amino-5-(1-piperidin-4-yl-1H-pyrazol-4-yl)-pyridin-3-yl]-isoquinolin-6-ol trihydrochloride salt]	1000 to 20000 nM	100 to 1000 nM
N#Cc1ccc2cnc(-c3cc(-c4cnn(C5CCNCC5)c4)cnc3N)cc2c1 [Example 31, 3-[2-Amino-5-(1-piperidin-4-yl-1H-pyrazol-4-yl)-pyridin-3-yl]-isoquinoline-6-carbonitrile trihydrochloride salt]	1000 to 20000 nM	1000 to 20000 nM
N#Cc1cccc2cnc(-c3cc(-c4cnn(C5CCNCC5)c4)cnc3N)cc12 [Example 33, 3-[2-Amino-5-(1-piperidin-4-yl-1H-pyrazol-4-yl)-pyridin-3-yl]-isoquinoline-5-carbonitrile trihydrochloride salt]	100 to 1000 nM	100 to 1000 nM
Nc1ncc(-c2cnn(C3CCNCC3)c2)cc1-c1cc2cc(F)ccc2cn1 [Example 35, 3-(6-Fluoroisoquinolin-3-yl)-5-(1-piperidin-4-yl-1H-pyrazol-4-yl)-pyridin-2-ylamine]	1000 to 20000 nM	1000 to 20000 nM
N#Cc1ccc(F)c2cnc(-c3cc(-c4cnn(C5CCNCC5)c4)cnc3N)cc12 [Example 37, 3-[2-Amino-5-(1-piperidin-4-yl-1H-pyrazol-4-yl)-pyridin-3-yl]-8-fluoro-isoquinoline-5-carbonitrile trihydrochloride]	100 to 1000 nM	100 to 1000 nM
Nc1ncc(-c2cnn(C3CCNCC3)c2)cc1-c1cc2cccc(F)c2cn1 [Example 39, 3-(8-Fluoroisoquinolin-3-yl)-5-(1-piperidin-4-yl-1H-pyrazol-4-yl)-pyridin-2-ylamine]	100 to 1000 nM	≤ 100 nM
Nc1ncc(-c2cnn(C3CCNCC3)c2)cc1-c1cc2cc(Cl)ccc2cn1 [Example 40, 3-(6-Chloroisoquinolin-3-yl)-5-(1-piperidin-4-yl-1H-pyrazol-4-yl)-pyridin-2-ylamine trihydrochloride]	100 to 1000 nM	100 to 1000 nM
Nc1ncc(-c2cnn(C3CCNCC3)c2)cc1-c1cc2ccc(Cl)cc2cn1 [Example 41, 3-(7-Chloroisoquinolin-3-yl)-5-(1-piperidin-4-yl-1H-pyrazol-4-yl)-pyridin-2-ylamine trihydrochloride]	1000 to 20000 nM	100 to 1000 nM
COc1ccc2cc(-c3cc(-c4cnn(C5CCNCC5)c4)cnc3N)ncc2c1 [Example 44, 3-(7-Methoxyisoquinolin-3-yl)-5-(1-piperidin-4-yl-1H-pyrazol-4-yl)-pyridin-2-ylamine trihydrochloride]	1000 to 20000 nM	1000 to 20000 nM
COc1ccc2cnc(-c3cc(-c4cnn(C5CCNCC5)c4)cnc3N)cc2c1 [Example 45, 3-(6-Methoxyisoquinolin-3-yl)-5-(1-piperidin-4-yl-1H-pyrazol-4-yl)-pyridin-2-ylamine trihydrochloride]	1000 to 20000 nM	100 to 1000 nM
Nc1ncc(-c2cnn(C3CCNCC3)c2)cc1-c1cc2cc(F)cc(Cl)c2cn1 [Example 47, 3-(8-Chloro-6-fluoroisoquinolin-3-yl)-5-(1-piperidin-4-yl-1H-pyrazol-4-yl)-pyridin-2-ylamine trihydrochloride salt]	100 to 1000 nM	100 to 1000 nM
Nc1ncc(-c2cnn(C3CCNCC3)c2)cc1-c1cc2c(-c3ccoc3)ccc(F)c2cn1 [Example 49, 3-(8-Fluoro-5-furan-3-ylisoquinolin-3-yl)-5-(1-piperidin-4-yl-1H-pyrazol-4-yl)-pyridin-2-ylamine trihydrochloride]	100 to 1000 nM	≤ 100 nM
Nc1ncc(-c2cnn(C3CCNCC3)c2)cc1-c1cc2c(-c3cn[nH]c3)ccc(F)c2cn1 [Example 51, 3-[8-Fluoro-5-(1H-pyrazol-4-yl)-isoquinolin-3-yl]-5-(1-piperidin-4-yl-1H-pyrazol-4-yl)-pyridin-2-ylamine trihydrochloride]	≤ 100 nM	≤ 100 nM

— patent US8178668B2, “2-aminopyridine kinase inhibitors” (OSI Pharmaceuticals, LLC, priority 2008, dated 2012)
